Experiments:
Assay in all cases: relative viability (nuclei count vs DMSO), 5 days (fraction); higher = more cells survive
GSK126 + Alpelisib = compound: CC[C@H](C)N1C=C(C2=C(C=C(C=C21)C3=CN=C(C=C3)N4CCNCC4)C(=O)NCC5=C(C=C(NC5=O)C)C)C [GSK126] + Cc1nc(NC(=O)N2CCC[C@H]2C(N)=O)sc1-c1ccnc(C(C)(C)C(F)(F)F)c1 [Alpelisib] (partner 2 µM)
In short: (§1)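 Lung cancer cell lines were seeded in 1536-well plates and dosed by pin tool the next day, with either a single drug or a fixed anchor-drug dose combined with five library-drug doses (not always all listed) spaced in √10 steps. Five days later, one step fixed the cells and stained their nuclei (final 0.05% Triton X-100, 1% formaldehyde, 1 ug/ml Hoechst), and nuclei were counted on 4× images. Relative viability is the nuclei count in treated wells divided by the count in vehicle wells, and each value is the median of duplicate plates.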

GSK126 + Bortezomib = compound: CC[C@H](C)N1C=C(C2=C(C=C(C=C21)C3=CN=C(C=C3)N4CCNCC4)C(=O)NCC5=C(C=C(NC5=O)C)C)C [GSK126] + CC(C)C[C@H](NC(=O)[C@H](Cc1ccccc1)NC(=O)c1cnccn1)B(O)O [Bortezomib] (partner 0.002 µM)
In short: as §1

Carboplatin + Vorinostat = compound: C1CC(C1)(C(=O)O)C(=O)O.[NH2-].[NH2-].[Pt+2] [Carboplatin] + O=C(CCCCCCC(=O)Nc1ccccc1)NO [Vorinostat] (partner 1 µM)
In short: as §1

Carboplatin + AZD7762 = compound: C1CC(C1)(C(=O)O)C(=O)O.[NH2-].[NH2-].[Pt+2] [Carboplatin] + NC(=O)Nc1cc(-c2cccc(F)c2)sc1C(=O)N[C@H]1CCCNC1 [AZD7762] (partner 0.2 µM)
In short: as §1

| Cell Line | relative viability (GSK126 + Alpelisib; first compound 0.08 µM) | relative viability (GSK126 + Alpelisib; first compound 0.253 µM) | relative viability (GSK126 + Alpelisib; first compound 0.8 µM) | relative viability (GSK126 + Alpelisib; first compound 2.53 µM) | relative viability (GSK126 + Alpelisib; first compound 8 µM) | relative viability (GSK126 + Bortezomib; first compound 0.08 µM) | relative viability (GSK126 + Bortezomib; first compound 0.253 µM) | relative viability (GSK126 + Bortezomib; first compound 0.8 µM) | relative viability (GSK126 + Bortezomib; first compound 2.53 µM) | relative viability (GSK126 + Bortezomib; first compound 8 µM) | relative viability (Carboplatin + Vorinostat; first compound 0.08 µM) | relative viability (Carboplatin + Vorinostat; first compound 0.253 µM) | relative viability (Carboplatin + Vorinostat; first compound 0.8 µM) | relative viability (Carboplatin + Vorinostat; first compound 2.53 µM) | relative viability (Carboplatin + Vorinostat; first compound 8 µM) | relative viability (Carboplatin + AZD7762; first compound 0.08 µM) | relative viability (Carboplatin + AZD7762; first compound 0.253 µM) | relative viability (Carboplatin + AZD7762; first compound 0.8 µM) | relative viability (Carboplatin + AZD7762; first compound 2.53 µM) | relative viability (Carboplatin + AZD7762; first compound 8 µM) |
| --- | --- | --- | --- | --- | --- | --- | --- | --- | --- | --- | --- | --- | --- | --- | --- | --- | --- | --- | --- | --- |
| LOU-NH91 | 0.778 | 0.694 | 0.696 | 0.721 | 0.722 | 0.444 | 0.475 | 0.498 | 0.439 | 0.501 | 1.03 | 0.937 | 0.949 | 0.894 | 0.734 | 0.824 | 0.761 | 0.751 | 0.764 | 0.773 |
| LU99A | 0.554 | 0.512 | 0.52 | 0.572 | 0.594 | 1.13 | 1.08 | 1.19 | 1.15 | 1.12 | 0.507 | 0.577 | 0.485 | 0.418 | 0.292 | 0.425 | 0.405 | 0.349 | 0.243 | 0.196 |
| LXF-289 | 1.1 | 1.05 | 1.02 | 1.01 | 1.02 | 1.04 | 0.996 | 1 | 1.01 | 1.04 | 0.788 | 0.787 | 0.775 | 0.793 | 0.713 | 1.17 | 1.16 | 1.07 | 1.06 | 1.03 |
| NCI-H23 | 0.74 | 0.628 | 0.565 | 0.779 | 0.76 | 1.13 | 0.96 | 0.922 | 1.02 | 0.95 | 0.658 | 0.632 | 0.522 | 0.62 | 0.343 | 0.264 | 0.263 | 0.243 | 0.188 | 0.23 |
| NCI-H322M | 0.819 | 0.836 | 0.817 | 0.78 | 0.737 | 1.12 | 1.26 | 1.27 | 1.25 | 1.26 | 0.994 | 0.855 | 0.928 | 0.91 | 0.709 | 0.598 | 0.548 | 0.553 | 0.547 | 0.428 |
| NCI-H441 | 0.756 | 0.717 | 0.76 | 0.566 | 0.753 | 0.445 | 0.452 | 0.419 | 0.507 | 0.519 | 0.865 | 0.835 | 0.588 | 0.785 | 0.369 | 1.26 | 1.11 | 0.954 | 0.995 | 0.804 |
| NCI-H460 | 0.673 | 0.486 | 0.369 | 0.504 | 0.431 | 1.34 | 1.1 | 1.06 | 1.09 | 1.18 | 0.761 | 0.629 | 0.582 | 0.235 | 0.076 | 0.612 | 0.53 | 0.524 | 0.279 | 0.111 |
| NCI-H596 | 0.681 | 0.445 | 0.397 | 0.51 | 0.556 | 1.09 | 0.982 |  | 1.14 | 0.731 | 0.669 | 0.654 | 0.509 | 0.368 | 0.467 | 1.25 | 1.18 | 1.09 | 0.885 | 0.693 |
